How the values were obtained:
Ba/F3 (EGFR Del19/C797S) = Ba/F3 (EGFR Del19/C797S) (Homo sapiens, UniProt P00533, C797S, cells depend on it, form not given); assay: Cell proliferation inhibitory activity assay, Ba/F3 EGFR Del19/C797S; assay type: cell-based; settings: cell proliferation inhibition, 72 hours, luminescence; read-out: Ba/F3 cells overexpressing different EGFR mutations IC50 (nM) Del19/C797S
Experimental: (§1) Suspension cells Ba/F3 (EGFR. Dell9/T790M/C797S), Ba/F3 (EGFR L858R/T790M/C797S), Ba/F3 (EGFR Del19/C797S), and Ba/F3 (EGFR L858R/C797S) overexpressing different EGFR mutations were cultured in PRMI 1640 containing 10% FBS and 1% PS, and adherent cells A431 carrying EGFR WT were cultured in DMEM containing 10% FBS and 1% PS. The experimental steps for compound activity detection are as follows: • (1) Take adherent cells in the logarithmic growth phase, digest them with trypsin count them, and then inoculate them into a 96-well plate at a certain density. Incubate them overnight at 37° C. and 5% CO2 to allow them to adhere.
(§2) Y=minimum+([…])/(1+10^((Log IC50−X)*slope)); • X: logarithm of compound concentration; Y: cell survival inhibition rate.

[1] = target: Ba/F3 (EGFR L858R/T790M/C797S) (Homo sapiens, UniProt P00533, T790M/C797S/L858R, cells depend on it); assay: Cell proliferation inhibitory activity assay, Ba/F3 EGFR L858R/T790M/C797S; assay type: cell-based; settings: cell proliferation inhibition, 72 hours, luminescence; read-out: Ba/F3 cells overexpressing different EGFR mutations IC50 (nM) L858R/T790M/C797S
Experimental: as §1, §2

[2] = tested on: A431 cell carrying EGFR WT; assay: Cell proliferation inhibitory activity assay, A431; assay type: cell-based; settings: Homo sapiens, A-431; cell proliferation inhibition, 72 hours, luminescence
Experimental: as §1, §2

[3] = target: Ba/F3 cells overexpressing EGFR Del19/T790M/C797S (Homo sapiens, UniProt P00533, T790M/C797S, cells depend on it, form not given); assay: Cell proliferation inhibitory activity assay, Ba/F3 EGFR Del19/T790M/C797S; assay type: cell-based; settings: cell proliferation inhibition, 72 hours, luminescence; read-out: Ba/F3 cells overexpressing different EGFR mutations IC50 (nM) Del19/T790M/C797S
Experimental: as §1, §2

[4] = Metabolic stability of liver microsomes, human; assay type: in vitro ADME; settings: NADPH, 0-45 min, read-out: CLint(μL/min/mg protein) Human
Experimental: (§3) The liver microsomes of human, rat, mouse and dog were used to study the metabolic stability of the compounds. The specific experimental steps are as follows: • (1) Add 40 μL MgCl2 and 306 μL PBS to each well of a 96-well plate, and then add 4 μL compound, with a final DMSO concentration of ≤0.5%. Set up a blank well without compound; • (2) Add 10 μL of 20 mg/mL liver microsomes to each well, incubate at 37° C. for 10 min; • (3) Add 40 μL NADPH working solution to each well to start the reaction, and set up a control well without NADPH; • (4) At 0, 5, 15, and 45 min after the start of the reaction, 50 μL of sample was taken out, the termination solution was added, and the mixture was shaken for 5 min. • (5) The samples were then centrifuged at 3,220 g for 10 min, and 50 μL of the supernatant was removed and was added 200 μL water for dilution and analysis by LC-MS/MS.
(§4) The in vitro intrinsic clearance (in vitro CLint, in μL/min/mg) was calculated from the in vitro half-life t1/2 (minutes) using the following equation (mean of replicates):
(§5) In vitro clearance rate=0.693/in vitro half-life t1/2×[incubation volume (μL)/(protein amount (mg)]

[5] = Metabolic stability of liver microsomes, mouse; assay type: in vitro ADME; settings: NADPH, 0-45 min, read-out: CLint(μL/min/mg protein) Mouse
Experimental: as §3, §4, §5

[6] = Metabolic stability of liver microsomes, dog; assay type: in vitro ADME; settings: NADPH, 0-45 min, read-out: CLint(μL/min/mg protein) Dog
Experimental: as §3, §4, §5

Ba/F3 (EGFR L858R/C797S) = Ba/F3 (EGFR L858R/C797S) (Homo sapiens, UniProt P00533, C797S/L858R, cells depend on it); assay: Cell proliferation inhibitory activity assay, Ba/F3 EGFR L858R/C797S; assay type: cell-based; settings: cell proliferation inhibition, 72 hours, luminescence; read-out: Ba/F3 cells overexpressing different EGFR mutations IC50 (nM) L858R/C797S
Experimental: as §1, §2

[7] = Metabolic stability of liver microsomes, rat; assay type: in vitro ADME; settings: NADPH, 0-45 min, read-out: CLint(μL/min/mg protein) Rat
Experimental: as §3, §4, §5

Pharmacokinetics in rats = assay type: in vivo, rat; settings: rat, po, male SD rats, 5 mg/kg orally by gavage, plasma; for Cmax: read-out: Cmax
Experimental: Male SD rats (200-300 g) were used for rat PK studies. Compounds were prepared and prepared immediately before use. Rats were administered intravenously or orally by gavage. Blood was collected from the rats through the orbital venous plexus, and 100 μL whole blood was collected into K2-EDTA tubes at each time point.
1 mg/kg was given intravenously, and whole blood was collected at 0.083, 0,25, $0.5, 1, 2, 4, 7, 24, 48, and 72 h after administration; 5 mg/kg were given orally by gavage, and whole blood was collected at 0.25, 0.5, 1, 2, 4, 7, 24, 48, and 72 h after administration in different batches, or the rats were killed at 4 and 24 h to obtain brains. The brain tissue samples were homogenized by adding 4 times the volume of buffer, and the whole blood and brain tissue samples were stored in a −80° C. refrigerator for later use. After the above whole blood and brain tissue samples were precipitated with acetonitrile for protein, the supernatant was taken and mixed with water in a ratio of 1:2, and 10 μL was taken for LC-MS/MS detection.

Pharmacokinetics in mice = assay type: in vivo, mouse; settings: mouse, po, female BALB/c mice, 5 mg/kg orally by gavage, plasma; for Cmax: read-out: Cmax
Experimental: Mouse PK studies were performed using female BALB/c mice (20-30 g). Compounds were prepared and prepared immediately before use. Mice were administered intravenously or orally by gavage. Blood was collected from the mouse orbital venous plexus, and 100 μL of whole blood was transferred to a K2-EDTA tube at each time point.
1 mg/kg was given intravenously, and whole blood was collected at 0.083, 0.25, 0.5, 1, 2, 4, 6 and 24 h after administration; 5 mg/kg were given orally by gavage, and whole blood was collected at 0.25, 0.5, 1, 2, 4, 6, 24 h after administration in different batches, or the mice were killed at 2, 4 and 6 h to obtain brains. Whole blood samples were centrifuged and plasma was separated; brain tissue samples were homogenized by adding 4 times the volume of buffer, and the plasma and brain tissue samples were stored in a −80° C. refrigerator for later use. After the above plasma and brain tissue samples were precipitated with acetonitrile for protein, the supernatant was taken and mixed with water in a 1:1 ratio, and 10 μL was taken for LC-MS/MS detection.

Sequence of Ba/F3 (EGFR L858R/T790M/C797S) (P00533 whole entry T790M/C797S/L858R): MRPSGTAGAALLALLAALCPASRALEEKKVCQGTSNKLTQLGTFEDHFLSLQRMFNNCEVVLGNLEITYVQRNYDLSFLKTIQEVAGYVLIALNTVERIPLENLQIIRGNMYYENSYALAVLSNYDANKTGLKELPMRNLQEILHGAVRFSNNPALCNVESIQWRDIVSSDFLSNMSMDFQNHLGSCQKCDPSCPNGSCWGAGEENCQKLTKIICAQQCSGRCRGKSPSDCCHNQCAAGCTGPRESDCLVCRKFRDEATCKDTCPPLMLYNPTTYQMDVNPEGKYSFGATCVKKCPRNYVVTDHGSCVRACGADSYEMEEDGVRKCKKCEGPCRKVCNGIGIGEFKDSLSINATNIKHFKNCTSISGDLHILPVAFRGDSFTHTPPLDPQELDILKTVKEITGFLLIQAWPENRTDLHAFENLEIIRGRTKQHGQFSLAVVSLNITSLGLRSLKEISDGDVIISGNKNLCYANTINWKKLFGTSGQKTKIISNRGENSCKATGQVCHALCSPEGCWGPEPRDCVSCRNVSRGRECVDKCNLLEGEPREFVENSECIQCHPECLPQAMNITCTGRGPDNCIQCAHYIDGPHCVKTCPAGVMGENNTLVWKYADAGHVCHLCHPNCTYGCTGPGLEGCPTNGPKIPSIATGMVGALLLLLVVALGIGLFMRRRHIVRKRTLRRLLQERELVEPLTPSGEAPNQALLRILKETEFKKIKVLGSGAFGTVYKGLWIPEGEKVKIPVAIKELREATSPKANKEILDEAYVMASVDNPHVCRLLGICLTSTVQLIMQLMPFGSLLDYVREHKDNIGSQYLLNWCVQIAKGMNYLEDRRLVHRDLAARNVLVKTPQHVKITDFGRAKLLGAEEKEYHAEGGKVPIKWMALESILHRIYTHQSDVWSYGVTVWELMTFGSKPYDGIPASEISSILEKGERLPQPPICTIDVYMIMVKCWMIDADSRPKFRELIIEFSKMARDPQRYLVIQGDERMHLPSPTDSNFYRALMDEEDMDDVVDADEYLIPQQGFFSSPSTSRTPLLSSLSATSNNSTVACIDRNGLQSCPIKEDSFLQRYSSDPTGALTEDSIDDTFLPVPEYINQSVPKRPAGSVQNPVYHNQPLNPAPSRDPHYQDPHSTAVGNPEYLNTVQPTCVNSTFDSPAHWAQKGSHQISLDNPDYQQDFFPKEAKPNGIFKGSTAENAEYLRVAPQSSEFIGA
Sequence of Ba/F3 (EGFR L858R/C797S) (P00533 whole entry C797S/L858R): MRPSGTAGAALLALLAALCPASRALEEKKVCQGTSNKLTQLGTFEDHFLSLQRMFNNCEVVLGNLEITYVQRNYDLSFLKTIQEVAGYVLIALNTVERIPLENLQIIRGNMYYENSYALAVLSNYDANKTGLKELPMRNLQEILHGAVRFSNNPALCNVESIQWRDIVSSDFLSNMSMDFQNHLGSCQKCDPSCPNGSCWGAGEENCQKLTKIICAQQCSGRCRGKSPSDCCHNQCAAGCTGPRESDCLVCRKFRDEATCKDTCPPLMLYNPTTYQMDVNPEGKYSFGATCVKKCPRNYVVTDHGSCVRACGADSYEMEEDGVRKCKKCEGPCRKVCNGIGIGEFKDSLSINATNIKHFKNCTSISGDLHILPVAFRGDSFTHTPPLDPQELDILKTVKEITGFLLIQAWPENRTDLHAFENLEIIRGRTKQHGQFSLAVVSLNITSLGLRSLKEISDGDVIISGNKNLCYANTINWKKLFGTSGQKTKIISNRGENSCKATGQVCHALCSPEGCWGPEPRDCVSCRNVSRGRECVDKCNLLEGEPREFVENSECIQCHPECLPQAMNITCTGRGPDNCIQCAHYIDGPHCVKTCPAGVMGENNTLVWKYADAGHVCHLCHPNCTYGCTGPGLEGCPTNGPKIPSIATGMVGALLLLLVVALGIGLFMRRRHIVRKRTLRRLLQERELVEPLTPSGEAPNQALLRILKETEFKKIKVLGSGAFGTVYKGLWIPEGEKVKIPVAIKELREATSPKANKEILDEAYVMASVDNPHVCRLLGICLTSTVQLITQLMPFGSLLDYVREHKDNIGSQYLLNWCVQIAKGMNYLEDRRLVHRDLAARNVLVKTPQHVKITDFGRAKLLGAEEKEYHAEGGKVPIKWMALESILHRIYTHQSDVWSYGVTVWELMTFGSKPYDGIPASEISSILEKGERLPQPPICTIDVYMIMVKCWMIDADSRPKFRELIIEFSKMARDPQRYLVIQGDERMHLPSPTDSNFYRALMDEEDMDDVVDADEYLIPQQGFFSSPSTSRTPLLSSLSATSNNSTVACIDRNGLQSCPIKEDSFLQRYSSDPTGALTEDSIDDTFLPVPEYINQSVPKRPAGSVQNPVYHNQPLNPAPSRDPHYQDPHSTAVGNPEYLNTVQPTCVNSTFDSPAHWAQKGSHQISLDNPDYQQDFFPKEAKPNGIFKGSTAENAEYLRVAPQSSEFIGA
Sequence of Ba/F3 cells overexpressing EGFR Del19/T790M/C797S (P00533 with tags, fused parts or gaps DEL746-750/T790M/C797S, form open): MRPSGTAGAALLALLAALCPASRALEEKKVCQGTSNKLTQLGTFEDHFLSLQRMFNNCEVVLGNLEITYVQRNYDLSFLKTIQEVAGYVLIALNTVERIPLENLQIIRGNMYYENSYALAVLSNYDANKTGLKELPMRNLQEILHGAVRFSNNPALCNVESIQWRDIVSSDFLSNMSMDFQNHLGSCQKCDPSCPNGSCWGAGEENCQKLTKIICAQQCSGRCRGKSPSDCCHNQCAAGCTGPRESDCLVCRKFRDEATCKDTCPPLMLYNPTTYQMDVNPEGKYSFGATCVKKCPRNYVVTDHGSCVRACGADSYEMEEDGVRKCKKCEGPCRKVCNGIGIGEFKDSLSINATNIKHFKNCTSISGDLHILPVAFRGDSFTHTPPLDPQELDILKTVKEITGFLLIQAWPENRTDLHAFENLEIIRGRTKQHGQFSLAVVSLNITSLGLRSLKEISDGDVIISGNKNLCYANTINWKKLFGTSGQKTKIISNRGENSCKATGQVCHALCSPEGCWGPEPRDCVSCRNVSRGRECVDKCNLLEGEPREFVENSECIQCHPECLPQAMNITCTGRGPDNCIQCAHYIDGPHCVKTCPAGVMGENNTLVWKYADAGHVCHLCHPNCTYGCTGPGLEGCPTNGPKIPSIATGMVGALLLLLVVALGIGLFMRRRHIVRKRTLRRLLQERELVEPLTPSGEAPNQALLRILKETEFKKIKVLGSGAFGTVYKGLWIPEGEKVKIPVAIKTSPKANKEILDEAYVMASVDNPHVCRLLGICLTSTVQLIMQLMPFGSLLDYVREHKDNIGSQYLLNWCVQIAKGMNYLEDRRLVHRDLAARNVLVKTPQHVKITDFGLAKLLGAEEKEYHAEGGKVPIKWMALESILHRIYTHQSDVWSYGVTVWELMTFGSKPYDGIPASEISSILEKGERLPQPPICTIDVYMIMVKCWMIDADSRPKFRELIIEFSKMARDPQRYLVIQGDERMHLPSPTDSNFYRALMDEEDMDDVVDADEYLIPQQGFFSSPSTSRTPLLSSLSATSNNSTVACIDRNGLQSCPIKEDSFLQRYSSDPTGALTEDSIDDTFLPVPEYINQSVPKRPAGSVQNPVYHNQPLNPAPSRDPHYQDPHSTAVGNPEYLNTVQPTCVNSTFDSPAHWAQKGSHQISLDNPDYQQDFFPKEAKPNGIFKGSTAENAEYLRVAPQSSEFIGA
Sequence of Ba/F3 (EGFR Del19/C797S) (P00533 with tags, fused parts or gaps DEL746-750/C797S, form open): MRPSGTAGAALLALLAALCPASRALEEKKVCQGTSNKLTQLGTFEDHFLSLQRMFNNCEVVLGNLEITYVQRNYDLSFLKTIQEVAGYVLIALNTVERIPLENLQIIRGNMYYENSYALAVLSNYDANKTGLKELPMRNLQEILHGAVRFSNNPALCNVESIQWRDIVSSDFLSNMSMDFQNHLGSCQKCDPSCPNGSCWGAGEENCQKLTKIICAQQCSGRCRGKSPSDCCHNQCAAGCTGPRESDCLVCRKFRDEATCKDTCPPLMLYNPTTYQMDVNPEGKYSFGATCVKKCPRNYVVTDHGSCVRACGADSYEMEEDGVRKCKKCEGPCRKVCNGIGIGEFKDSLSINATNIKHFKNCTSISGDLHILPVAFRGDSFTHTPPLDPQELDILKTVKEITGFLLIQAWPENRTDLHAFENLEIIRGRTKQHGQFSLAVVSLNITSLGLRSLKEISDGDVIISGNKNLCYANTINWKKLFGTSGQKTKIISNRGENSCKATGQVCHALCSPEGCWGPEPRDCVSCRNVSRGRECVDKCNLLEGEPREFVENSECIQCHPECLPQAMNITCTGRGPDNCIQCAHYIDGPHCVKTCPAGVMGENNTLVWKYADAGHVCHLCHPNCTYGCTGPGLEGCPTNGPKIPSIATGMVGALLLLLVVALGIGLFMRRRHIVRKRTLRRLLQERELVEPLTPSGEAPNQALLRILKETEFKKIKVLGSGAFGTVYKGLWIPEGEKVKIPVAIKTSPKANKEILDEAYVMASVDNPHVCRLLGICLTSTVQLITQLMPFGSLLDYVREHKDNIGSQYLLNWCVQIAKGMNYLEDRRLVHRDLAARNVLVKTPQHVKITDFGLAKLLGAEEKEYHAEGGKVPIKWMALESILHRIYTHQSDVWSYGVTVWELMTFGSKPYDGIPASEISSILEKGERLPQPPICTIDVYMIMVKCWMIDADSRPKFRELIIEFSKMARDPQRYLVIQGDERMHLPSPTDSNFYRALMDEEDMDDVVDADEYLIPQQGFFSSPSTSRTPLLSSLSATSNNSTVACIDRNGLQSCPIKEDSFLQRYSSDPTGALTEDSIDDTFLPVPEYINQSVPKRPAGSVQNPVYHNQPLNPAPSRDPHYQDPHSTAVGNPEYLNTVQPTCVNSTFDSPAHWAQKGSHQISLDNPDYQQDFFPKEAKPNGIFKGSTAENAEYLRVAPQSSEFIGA

| SMILES | GI50 (Ba/F3 (EGFR Del19/C797S)) | GI50 [1] | IC50 [2] | GI50 [3] | microsomal CLint [4] | microsomal CLint [5] | microsomal CLint [6] | GI50 (Ba/F3 (EGFR L858R/C797S)) | microsomal CLint [7] | AUC(0-t) (Pharmacokinetics in rats) | half-life (Pharmacokinetics in rats) | Cmax (Pharmacokinetics in rats) | AUC(0-t) (Pharmacokinetics in mice) | half-life (Pharmacokinetics in mice) | Cmax (Pharmacokinetics in mice) |
| --- | --- | --- | --- | --- | --- | --- | --- | --- | --- | --- | --- | --- | --- | --- | --- |
| Cc1cc2cc(n1)-c1cnccc1OCCC[C@@H](C)Cn1c(nc3ccc(N4CCC5(CCN(C)CC5)CC4)cc31)NC2=O [Example 3, (R)-2^6,7-dimethyl-5^6-(9-methyl-3,9-diazaspiro[5.5]undecan-3-yl)-5^1H-11-oxa-4-aza-5(2,1)-benzo[d]imidazola-1(3,4)2(2,4)-dipyridinacycloundecaphan-3-one] | 0.07 nM | 0.71 nM | 759 nM | 0.49 nM | 6.6 µL/min/mg | 23.1 µL/min/mg | 7.9 µL/min/mg | 0.44 nM | 8 µL/min/mg | – | – | – | – | – | – |
| Cc1cc2cc(n1)-c1cnccc1OCCCCCn1c(nc3ccc(N4CCC5(CCN(C)CC5)CC4)cc31)NC2=O [Example 1, 2^6-methyl-5^6-(9-methyl-3,9-diazaspiro[5.5]undecan-3-yl)-5^1H-11-oxa-4-aza-5(2,1)-benzo[d]imidazola-1(3,4),2(2,4)-dipyridinacycloundecaphan-3-one] | 0.08 nM | 0.62 nM | 1640 nM | 0.24 nM | 7.2 µL/min/mg | 32.7 µL/min/mg | 8.9 µL/min/mg | 0.23 nM | 14.2 µL/min/mg | – | – | – | – | – | – |
| Cc1cc2cc(n1)-c1cnccc1OCCCCCn1c(nc3cc(C)c(N4CCC5(CCN(C)CC5)CC4)cc31)NC2=O [Example 13, 2^6,5^5-dimethyl-5^6-(9-methyl-3,9-diazaspiro[5.5]undecan-3-yl)-5^1H-11-oxa-4-aza-5(2,1)-benzo[d]imidazola-1(3,4),2(2,4)-dipyridinacycloundecaphan-3-one] | 0.2 nM | 2 nM | > 3330 nM | 0.96 nM | 4 µL/min/mg | 6.2 µL/min/mg | 4.2 µL/min/mg | 1.3 nM | 7 µL/min/mg | – | – | – | – | – | – |
| Cc1cc2cc(n1)-c1cnccc1OCCCCCn1c(nc3ccc(N4CCC5(CCN(CC(C)(C)F)CC5)CC4)cc31)NC2=O [Example 78, 5^6-(9-(2-fluoro-2-methylpropyl)-3,9-diazaspiro [5.5]undecan-3-yl)-2^6-methyl-5^1H-11-oxa-4-aza-5(2,1)-benzo[d] imidazola-1(3,4),2(2,4)-dipyridinacyclo-undecaphan-3-one] | 3.3 nM | 12 nM | > 3330 nM | 5.9 nM | 4.3 µL/min/mg | 69.5 µL/min/mg | 22 µL/min/mg | 21 nM | 12.2 µL/min/mg | – | – | – | – | – | – |

Continued by falling GI50 (Ba/F3 (EGFR Del19/C797S)), values first:

| GI50 (Ba/F3 (EGFR Del19/C797S)) | GI50 [1] | IC50 [2] | GI50 [3] | microsomal CLint [4] | microsomal CLint [5] | microsomal CLint [6] | GI50 (Ba/F3 (EGFR L858R/C797S)) | microsomal CLint [7] | AUC(0-t) (Pharmacokinetics in rats) | half-life (Pharmacokinetics in rats) | Cmax (Pharmacokinetics in rats) | AUC(0-t) (Pharmacokinetics in mice) | half-life (Pharmacokinetics in mice) | Cmax (Pharmacokinetics in mice) | SMILES |
| --- | --- | --- | --- | --- | --- | --- | --- | --- | --- | --- | --- | --- | --- | --- | --- |
| 0.48 nM | 7.6 nM | 1000 nM | 4.9 nM | 24.9 µL/min/mg | 5.5 µL/min/mg | 10.4 µL/min/mg | 4.4 nM | – | – | – | – | – | – | – | Cc1cc2cc(n1)-c1cnccc1OCCC[C@@H](C)Cn1c(nc3cc(C)c(N4CCC5(CC4)CCN(C4COC4)CC5)cc31)NC2=O [Example 12, (R)-2^6,5^5,7-trimethyl-5^6-(9-(oxetan-3-yl)-3,9-diazaspiro[5.5]undecan-3-yl)-5^1H-11-oxa-4-aza-5(2,1)-benzo[d]imidazola-1(3,4),2(2,4) -dipyridinacycloundecaphan-3-on] |
| 0.38 nM | 4.1 nM | 403 nM | 2.1 nM | 41.5 µL/min/mg | – | 20.6 µL/min/mg | 2.1 nM | 2.9 µL/min/mg | 1700 ng·h/mL | 1030 min | 106 ng/mL | 1140 ng·h/mL | 1290 min | 92.4 ng/mL | Cc1cc2cc(n1)-c1cnccc1OCCC[C@@H](C)Cn1c(nc3cc(F)c(N4CCC5(CC4)CCN(C4COC4)CC5)cc31)NC2=O [Example 6, (R)-5^5-fluoro-2^6,7-dimethyl-5^6-(9-(oxetan-3-yl)-3,9-diazaspiro[5.5]undecan-3-yl)-5^1H-11-oxa-4-aza-3(2.1)-benzo[d]imidazola-1(3,4),2(2,4)-dipyridinacycloundecaphan-3-one] |
| 0.2 nM | 1.1 nM | 274 nM | 0.2 nM | 26.3 µL/min/mg | – | 24 µL/min/mg | 0.8 nM | 5.6 µL/min/mg | 2590 ng·h/mL | 1650 min | 165 ng/mL | 2090 ng·h/mL | 317 min | 181 ng/mL | Cc1cc2cc(n1)-c1cnccc1OCCC[C@@H](C)Cn1c(nc3ccc(N4CCC5(CC4)CCN(C4COC4)CC5)cc31)NC2=O [Example 4] |
| 0.19 nM | 0.98 nM | 331 nM | 0.61 nM | 9.1 µL/min/mg | 22.8 µL/min/mg | 2.2 µL/min/mg | 0.88 nM | 8.9 µL/min/mg | – | – | – | – | – | – | Cc1cc2cc(n1)-c1cnccc1OCCC[C@@H](C)Cn1c(nc3cc(F)c(N4CCC5(CCN(C)CC5)CC4)cc31)NC2=O [Example 5, (R)-5^5-fluoro-2^6,7-dimethyl-5^6-(9-methyl-3,9-diazaspiro[5.5]undecan-3-yl)-5^1H-11-oxa-4-aza-5(2,1)-benzo[d]imidazola-1(3,4),2(2,4)-dipyridinacycloundecaphan-3-one] |

Reference: US20250223300A1, “MACROCYCLIC COMPOUND AND PHARMACEUTICAL COMPOSITION AND USE THEREOF” (BETTA PHARMACEUTICALS CO., LTD, priority 2022, published 2025)
